Test results taken from patent US3992536A, “Pharmaceutical compositions containing a 1-phenyl-2,2,4,4-C1 -C2 alkyl-3-[4-phenyl of pyridyl)-piperazino]-cyclobutanol-(1) and method of use” (Boehringer Ingelheim GmbH, priority 1972, dated 1976).

Key:
[1] = Acute Toxicity (oral, Litchfield and Wilcoxon); format: in vivo; conditions: mouse, in vivo, po; mice; death within 14 days after application
Description: (§1) The acute toxicity was determined after oral administration to groups of 10 mice (sex ratio 1:1) from our own breeding colony.

[2] = test system: mice; test: Activity on the spontaneous motility in mice (inhibition, photoelectric barriers, Friebel, Sommer and Varadan); format: in vivo, SPF-NMRI-mice, female; conditions: Mus musculus, po, read-out: ED50 (50% inhibition of spontaneous motility)
Description: 1. Activity on the spontaneous motility in mice:
The inhibition of spontaneous motility was determined with the aid of photoelectric barriers using an adaption of the method of Friebel, Sommer and Varadan (Arzneimittelforschung 9, 126 (1959)). SPF-NMRI-mice from our own breeding colony, having a body weight between 20 and 26 gm, were used. The number of interruptions in the flow of light was measured by ten photoelectric cells uniformly distributed in the bottom of a cylindrical cage, 25 cm in diameter, using a counting device. Thus, the spontaneous motility was registered as the animals moved over the bottom of the cage. 5 female mice were placed in each cage and their activity after application of the substance was measured for different periods of time relative to control mice. The present decrease in motility observed after application of various dosages relative to sham treated control animals was determined by graphical extrapolation, so that the dosage necessary for a 50% inhibition of spontaneous motility (ED50) could be obtained: […]

[3] = test system: mice; test: Muscle relaxing and sedative activity in mice (slowly rotating wire cylinders, Young and Lewis); format: in vivo, NMRI-mice, female; conditions: Mus musculus, po, read-out: ED50 (50% of the animals fall out of rotating cylinder)
Description: 2. Muscle relaxing and sedative activity in mice:
The muscle relaxing and sedative activity was tested according to the method of Young and Lewis (Science 105, 368 (1947)) with female NMRI-mice of a specific breed having a body weight of from 20 to 26 gm. The test apparatus comprises slowly turning wire cylinders, sloped for 30° against the vertical line (length: 43 cm; diameter: 22 cm; mesh-size of the wire netting: 0.6 cm). After peroral administration of a suspension of the substance under test in 1% tylose suspension to groups of 10 mice/dose, their bearing in the slowly rotating cylinders (2 rotations/minute) was observed and was compared with a control group. The dose (ED50) which caused 50% of the animals to fall out after certain test times was determined graphically: […]

[4] = test system: mice; test: Acute Toxicity (oral, Litchfield and Wilcoxon); format: in vivo; conditions: p.o., within 14 days, printed beside LD50 >3200 mgm/kg
Description: as §1

Structure (SMILES) | LD50 at 336 h [1] | ED50 ([2]; after 30-45 minutes) | ED50 ([2]; after 90-105 minutes) | ED50 ([2]; after 150-165 minutes) | ED50 ([3]; after 30-60 minutes) | ED50 ([3]; after 90-120 minutes) | ED50 ([3]; after 210-240 minutes) | ED50 ([3]; after 270-300 minutes) | animals died [4]
CC1(C)[C@H](N2CCN(c3ccccn3)CC2)C(C)(C)[C@@]1(O)c1ccc(O)cc1 [A] | 338 mg/kg | 7.5 mg/kg | 11 mg/kg | 6 mg/kg | 5.5 mg/kg | 7.5 mg/kg | 8.5 mg/kg | 7.5 mg/kg | 
CC1(C)[C@H](N2CCN(c3ccccc3)CC2)C(C)(C)[C@@]1(O)c1ccc(O)cc1 [B] | 1340 mg/kg | > 50 mg/kg | 3 mg/kg | 4 mg/kg | 26 mg/kg | 11 mg/kg | 6 mg/kg | 5.5 mg/kg | 
COc1ccc(N2CCN([C@H]3C(C)(C)[C@](O)(c4ccc(O)cc4)C3(C)C)CC2)cc1 [C] | > 6400 mg/kg | 11 mg/kg | 7.5 mg/kg | 6 mg/kg | 20 mg/kg | 16 mg/kg | 34 mg/kg | 15.5 mg/kg | 
COc1ccc([C@]2(O)C(C)(C)[C@@H](N3CCN(c4ccccc4)CC3)C2(C)C)cc1OC [D] | 2900 mg/kg | 26 mg/kg | 22 mg/kg | 3 mg/kg | > 40 mg/kg | 32 mg/kg | 16 mg/kg | 14 mg/kg | 
CC1(C)[C@H](N2CCN(c3ccc(O)cc3)CC2)C(C)(C)[C@@]1(O)c1ccc(O)cc1 [E] | > 3200 mg/kg | 5 mg/kg | 5 mg/kg | < 2.5 mg/kg | 10 mg/kg | 13 mg/kg | 9 mg/kg | 3 mg/kg | 0 out of 10
CC(C)c1ccc([C@]2(O)C(C)(C)[C@@H](N3CCN(c4ccccc4)CC3)C2(C)C)cc1 [F] | > 800 mg/kg | 95 mg/kg | 5 mg/kg | 2 mg/kg | 29 mg/kg | 4 mg/kg | 2 mg/kg | 3 mg/kg | 
CC(C)c1ccc([C@]2(O)C(C)(C)[C@@H](N3CCN(c4ccccn4)CC3)C2(C)C)cc1 [G] | 118 mg/kg | 7 mg/kg | 3 mg/kg | 5 mg/kg | 11 mg/kg | 8 mg/kg | 3 mg/kg | 8 mg/kg | 
CC1(C)[C@H](N2CCN(c3ccccn3)CC2)C(C)(C)[C@@]1(O)c1ccc(Cl)cc1 [H] | 442 mg/kg | > 13 mg/kg | 31 mg/kg | > 13 mg/kg | 13 mg/kg | 22 mg/kg | 19 mg/kg | 15 mg/kg | 
CC(C)(C)c1ccc([C@]2(O)C(C)(C)[C@@H](N3CCN(c4ccccn4)CC3)C2(C)C)cc1 [I] |  | 16 mg/kg | 3 mg/kg | 3 mg/kg | 16 mg/kg | 10 mg/kg | 17 mg/kg | 14 mg/kg | 
CC(C)(C)c1ccc([C@]2(O)C(C)(C)[C@@H](N3CCN(c4ccccc4)CC3)C2(C)C)cc1 [K] |  | 15 mg/kg | 3 mg/kg | 2 mg/kg | 48 mg/kg | 8 mg/kg | 6 mg/kg | 1 mg/kg | 
CCC(C)c1ccc([C@]2(O)C(C)(C)[C@@H](N3CCN(c4ccccn4)CC3)C2(C)C)cc1 (stereo partly shown) [L] | 162 mg/kg | 7 mg/kg | 1 mg/kg | 1 mg/kg | 5 mg/kg | 4 mg/kg | 2 mg/kg | 1 mg/kg | 
CC(C)Cc1ccc([C@]2(O)C(C)(C)[C@@H](N3CCN(c4ccccn4)CC3)C2(C)C)cc1 [M] |  | 9 mg/kg | > 3 mg/kg | 0.4 mg/kg | 4 mg/kg | 4 mg/kg | 3 mg/kg | 2 mg/kg | 
CC(C)Cc1ccc([C@]2(O)C(C)(C)[C@@H](N3CCN(c4ccccc4)CC3)C2(C)C)cc1 [N] |  | 8 mg/kg | 2 mg/kg | 1 mg/kg | 65 mg/kg | 3 mg/kg | 2 mg/kg | 3 mg/kg | 
CCC(C)c1ccc([C@]2(O)C(C)(C)[C@@H](N3CCN(c4ccccc4)CC3)C2(C)C)cc1 (stereo partly shown) [O] | 800 mg/kg | 9 mg/kg | 3 mg/kg | 2 mg/kg | 1 mg/kg | 1 mg/kg | 2 mg/kg | 1 mg/kg | 
CCCCc1ccc([C@]2(O)C(C)(C)[C@@H](N3CCN(c4ccccn4)CC3)C2(C)C)cc1 [P] |  | 9 mg/kg | 3 mg/kg | 2 mg/kg | 15 mg/kg | 4 mg/kg | 3 mg/kg | 6 mg/kg | 
CCCCc1ccc([C@]2(O)C(C)(C)[C@@H](N3CCN(c4ccccc4)CC3)C2(C)C)cc1 [Q] |  | 34 mg/kg | > 3 mg/kg | 4 mg/kg | > 200 mg/kg | 22 mg/kg | 8 mg/kg | 8 mg/kg | 
CC1(C)[C@H](N2CCN(c3ccccn3)CC2)C(C)(C)[C@@]1(O)c1cccc(Cl)c1 [R] |  | > 25 mg/kg | 12 mg/kg | 13 mg/kg | 46 mg/kg | 8 mg/kg | 8 mg/kg | 11 mg/kg | 
